Here are results for ten molecules from patent US12398154B2, “Azaquinazoline pan-KRas inhibitors” (Mirati Therapeutics, Inc., priority 2020, dated 2025).

The target of one experiment is KRas G12V (Homo sapiens, UniProt P01116, G12V). Kind of experiment: biochemical.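 Further: KRas binding measured by TR-FRET displacement at room temperature, IC50 fitted from percent of control values.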
The next experiment concerns the target KRas G12D (Homo sapiens, UniProt P01116, G12D). Kind of experiment: biochemical.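 Further: TR-FRET displacement binding assay on KRas, read after a one-hour incubation at room temperature, IC50 fitted from percent-of-control values.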
Experiment [1] has as its system phospho-ERK in HCT116 (G13D) cells. The experiment is described as follows: Inhibition of KRas-mediated phosphorylation of ERK (in-cell western). It counts as cell-based. The conditions noted are these: Homo sapiens, HCT-116, 3 hours compound, phospho-ERK normalized to GAPDH. A digest of the protocol: (§1)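 After a 3-hour incubation with diluted compound in 0.5% DMSO, cells are fixed, permeabilized and stained overnight at 4° C for phosphorylated ERK and GAPDH.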

The test system of experiment [2] is phospho-ERK in A549 (G12S) cells. The experiment is described as above. It counts as cell-based. To be noted: Homo sapiens, 3 hours compound, phospho-ERK normalized to GAPDH. Summed up:
as §1

Experiment [3] concerns phospho-ERK in PSN-1 (G12R) cells. The description is as above. The conditions noted are these: Homo sapiens, PSN1, 3 hours compound, phospho-ERK normalized to GAPDH. Type of experiment: cell-based. Summed up:
as §1

Experiment [4] relates to phospho-ERK in NCI-H358 (G12C) cells. The experiment is described as above. To be noted: Homo sapiens, 3 hours compound, phospho-ERK normalized to GAPDH. It counts as cell-based. A digest of the protocol: as §1
Experiment [5] deals with phospho-ERK in NCI-H727 (G12V) cells. The experiment is described as above. It counts as cell-based. The conditions noted are these: Homo sapiens, NCI-H727, 3 h, 3 hours compound, phospho-ERK normalized to GAPDH. A digest of the protocol:
as §1

The target of another experiment is KRas G12R (Homo sapiens, UniProt P01116, G12R). The experiment is described as follows: biochemical.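 Further: TR-FRET displacement assay of compound binding to KRas, read after one hour at room temperature, potency from a four-parameter fit of percent-of-control values.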
A further experiment relates to pERK in HCT116 cells. The experiment is described as follows: Inhibition of KRas phosphorylation of ERK (Cisbio HTRF pERK assay). The conditions noted are these: Homo sapiens, HCT-116, read-out: Inhibition (HTRF IC50) of KRas-mediated Phosphorylation of ERK, HCT116. Background: TR-FRET usually uses a lanthanide donor and a delayed reading to cut background.
A further experiment has as its system pERK in PSN1 cells. Described as above. The conditions noted are these: Homo sapiens, PSN1, 3 h, read-out: Inhibition (HTRF IC50) of KRas-mediated Phosphorylation of ERK, PSN1.
A further experiment relates to pERK in MKN1 cells. The description is as above. To be noted: Homo sapiens, MKN-1, 3 h, read-out: Inhibition (HTRF IC50) of KRas-mediated Phosphorylation of ERK, MKN1.
The next experiment deals with pERK in H460 cells. The description is as above. The conditions noted are these: Homo sapiens, NCI-H460, read-out: Inhibition (HTRF IC50) of KRas-mediated Phosphorylation of ERK, H460.
The test system of experiment [6] is phospho-ERK in NCI-H460 (Q61H) cells. Kind of experiment: Inhibition of KRas-mediated phosphorylation of ERK (in-cell western). Type of experiment: cell-based. The conditions noted are these: Homo sapiens, NCI-H460, 3 h, 3 hours compound, phospho-ERK normalized to GAPDH. A digest of the protocol: as §1
Experiment [7] concerns phospho-ERK in AsPC-1 (G12D) cells. The experiment is described as above. It counts as cell-based. The conditions noted are these: Homo sapiens, ASPC1, 3 h, 3 hours compound, phospho-ERK normalized to GAPDH. Summed up:
as §1

Experiment [8] has as its system phospho-ERK in MKN1 (WTdep) cells. Described as above. It counts as cell-based. To be noted: Homo sapiens, MKN-1, 3 hours compound, phospho-ERK normalized to GAPDH. Summed up: as §1
In another experiment the test system is pERK in ASPC1 cells. The experiment is described as follows: Inhibition of KRas phosphorylation of ERK (Cisbio HTRF pERK assay). To be noted: Homo sapiens, ASPC1, read-out: Inhibition (HTRF IC50) of KRas-mediated Phosphorylation of ERK, AsPC-1.
The test system of the next experiment is pERK in A549 cells. Described as above. The conditions noted are these: Homo sapiens, A549, read-out: Inhibition (HTRF IC50) of KRas-mediated Phosphorylation of ERK, A549.
The subject of a further experiment is pERK in H727 cells. Described as above. The conditions noted are these: Homo sapiens, NCI-H727, read-out: Inhibition (HTRF IC50) of KRas-mediated Phosphorylation of ERK, H727.
In the next experiment the target is KRas G12C (Homo sapiens, UniProt P01116, G12C). The experiment is described as follows: biochemical.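 Further: binding to KRas assessed by TR-FRET displacement after one hour incubation at room temperature, potency fitted from percent-of-control values.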
The next experiment concerns the target KRas G12S (Homo sapiens, UniProt P01116, G12S). The experiment is described as follows: biochemical.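 Further: TR-FRET displacement binding to KRas, read after one hour incubation at room temperature, IC50 from four-parameter fit of percent of control.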
A further experiment has as its target KRas WT (Homo sapiens, UniProt P01116). The experiment is described as follows: biochemical.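 Further: binding to KRas read as TR-FRET displacement after a one-hour room-temperature incubation, IC50 derived from percent-of-control values.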
In a further experiment the target is T1, KRas G13D (Homo sapiens, UniProt P01116, G13D).
T1 construct: Biotinylated KRas (corresponding to amino acids 1-169, produced at Accelegan Inc.); biotin (biotinylated); purchased Accelegan Inc
The experiment is described as follows: KRas binding assay (TR-FRET displacement).

Another experiment concerns the target KRas G12A (Homo sapiens, UniProt P01116, G12A). Kind of experiment: biochemical.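 Further: binding to KRas measured by TR-FRET displacement after one hour at room temperature, IC50 from a four-parameter fit of percent-of-control values.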
The next experiment addresses T2, KRas Q61H (Homo sapiens, UniProt P01116, Q61H).
T2 construct: Biotinylated KRas (corresponding to amino acids 1-169, produced at Accelegan Inc.); biotin (biotinylated); purchased Accelegan Inc
Kind of experiment: KRas binding assay (TR-FRET displacement).

SMILES strings stand for the structures. Some results are limits rather than exact numbers.

Sequence of KRas G12D (P01116 1-169 isoform P01116-2 G12D): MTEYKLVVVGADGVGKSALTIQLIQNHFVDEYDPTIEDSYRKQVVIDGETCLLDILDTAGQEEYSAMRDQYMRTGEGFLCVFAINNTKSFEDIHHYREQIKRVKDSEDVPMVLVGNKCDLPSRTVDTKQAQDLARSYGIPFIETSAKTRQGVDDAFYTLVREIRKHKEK
Sequence of KRas G12V (P01116 1-169 isoform P01116-2 G12V): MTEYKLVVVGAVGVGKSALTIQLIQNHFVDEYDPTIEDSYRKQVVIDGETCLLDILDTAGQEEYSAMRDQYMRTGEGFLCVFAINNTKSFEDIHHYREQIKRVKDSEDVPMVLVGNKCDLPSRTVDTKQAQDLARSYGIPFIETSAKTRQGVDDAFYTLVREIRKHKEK
Sequence of KRas G12R (P01116 1-169 isoform P01116-2 G12R): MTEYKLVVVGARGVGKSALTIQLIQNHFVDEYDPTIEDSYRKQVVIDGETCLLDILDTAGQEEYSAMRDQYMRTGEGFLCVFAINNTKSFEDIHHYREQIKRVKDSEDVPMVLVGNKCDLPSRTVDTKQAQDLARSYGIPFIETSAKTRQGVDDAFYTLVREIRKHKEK
T1 sequence (P01116 1-169 isoform P01116-2 G13D): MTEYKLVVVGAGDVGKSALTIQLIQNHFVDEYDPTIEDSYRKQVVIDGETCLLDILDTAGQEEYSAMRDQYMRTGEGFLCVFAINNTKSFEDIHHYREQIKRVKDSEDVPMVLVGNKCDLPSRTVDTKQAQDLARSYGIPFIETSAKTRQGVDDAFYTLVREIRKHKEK
Sequence of KRas WT (P01116 1-169 isoform P01116-2): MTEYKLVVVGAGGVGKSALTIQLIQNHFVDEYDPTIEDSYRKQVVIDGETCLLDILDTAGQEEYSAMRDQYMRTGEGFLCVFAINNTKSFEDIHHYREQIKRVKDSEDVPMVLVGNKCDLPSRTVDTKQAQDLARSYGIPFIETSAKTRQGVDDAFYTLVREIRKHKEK
Sequence of KRas G12C (P01116 1-169 isoform P01116-2 G12C): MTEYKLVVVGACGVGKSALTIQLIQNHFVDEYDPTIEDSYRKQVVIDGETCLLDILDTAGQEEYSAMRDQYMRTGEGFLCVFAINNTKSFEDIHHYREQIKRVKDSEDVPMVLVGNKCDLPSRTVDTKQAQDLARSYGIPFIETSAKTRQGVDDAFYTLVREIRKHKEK
T2 sequence (P01116 1-169 isoform P01116-2 Q61H): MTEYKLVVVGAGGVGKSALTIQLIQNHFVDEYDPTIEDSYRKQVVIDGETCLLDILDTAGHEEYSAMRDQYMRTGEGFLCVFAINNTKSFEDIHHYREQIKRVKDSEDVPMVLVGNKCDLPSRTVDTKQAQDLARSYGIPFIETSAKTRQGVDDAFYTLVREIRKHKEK
Sequence of KRas G12S (P01116 1-169 isoform P01116-2 G12S): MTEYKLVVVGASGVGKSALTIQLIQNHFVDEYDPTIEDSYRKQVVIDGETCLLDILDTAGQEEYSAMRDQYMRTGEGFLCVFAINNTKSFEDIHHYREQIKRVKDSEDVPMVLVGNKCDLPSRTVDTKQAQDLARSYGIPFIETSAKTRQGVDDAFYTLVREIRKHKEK
Sequence of KRas G12A (P01116 1-169 isoform P01116-2 G12A): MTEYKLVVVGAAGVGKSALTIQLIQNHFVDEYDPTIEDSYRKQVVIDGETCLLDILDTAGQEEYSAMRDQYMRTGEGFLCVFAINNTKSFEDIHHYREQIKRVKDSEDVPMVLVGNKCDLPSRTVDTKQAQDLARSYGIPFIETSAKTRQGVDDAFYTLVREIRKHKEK

On to `CCc1c(F)ccc2cc(O)cc(-c3ncc4c(Nc5ccc6cn[nH]c6c5)nc(OC[C@@]56CCCN5C[C@H](F)C6)nc4c3F)c12` [Example 171, 4-(4-((1H-indazol-6-yl)amino)-8-fluoro-2-(((2R,7aS)-2-fluorohexahydro-1H-pyrrolizin-7a-yl)methoxy)pyrido[4,3-d]pyrimidin-7-yl)-5-ethyl-6-fluoronaphthalen-2-ol], for which the IC50 (usually the midpoint of a concentration-inhibition curve) against KRas G12V was 0.003 µM; against KRas G12D, 0.089 µM; in experiment [1], not below 10000 nM; in experiment [2] it was not below 10000 nM; in experiment [3], not below 10000 nM; in experiment [4], not below 10000 nM. For the same molecule, the results for the IC50 (in [5]; on KRas G12R) were not below 10000 nM and 0.009 µM, respectively.
On to `CCc1c(F)ccc2cc(O)cc(-c3ncc4c(N5CCOC[C@@](C)(O)C5)nc(OC[C@@]56CCCN5C[C@H](F)C6)nc4c3F)c12` [Example 200], for which the IC50 in the experiment with pERK in HCT116 cells turned out to be 0.011 µM; in the experiment with pERK in PSN1 cells, 1.01 µM; with pERK in MKN1 cells, 0.002 µM; in the experiment on pERK in H460 cells, 0.005 µM; in experiment [1], 21 nM; in experiment [2], 3 nM. The IC50 in experiment [6] stood at 22 nM; in [7], 47 nM; in experiment [8], 3 nM; in [4], 13 nM; in experiment [5] it was 67 nM; in the experiment with pERK in ASPC1 cells, 0.003 µM. Besides, the results for the IC50 with pERK in A549 cells and with pERK in H727 cells were 0.005 µM and 0.006 µM, respectively.
In the case of `CCc1c(F)ccc2cc(O)cc(-c3ncc4c(N5C[C@@H]6C[C@H](C5)[C@H](O)C6)nc(OC[C@@]56CCCN5C[C@H](F)C6)nc4c3F)c12` (single isomer, unassigned) [Example 140], the IC50 was 0.007 µM in the experiment with pERK in HCT116 cells; 0.922 µM in the experiment with pERK in PSN1 cells; 0.001 µM in the experiment with pERK in MKN1 cells; not above 0.002 µM against KRas G12V; not above 0.002 µM against KRas G12D; 0.004 µM with pERK in H460 cells. The IC50 in experiment [1] came out at 11 nM; in [2], 9 nM; in [6] it was 17 nM; in [7], 27 nM; in experiment [3] it was 1 nM; in experiment [8] it was 2 nM. Further, the IC50 in experiment [5] is 28 nM; in the experiment on pERK in ASPC1 cells it was 0.007 µM; with pERK in A549 cells, 0.002 µM; against KRas G12R it was not above 0.002 µM; in the experiment on pERK in H727 cells, 0.004 µM.
As to `C[C@@]1(O)CCCN(c2nc(OC[C@@]34CCCN3C[C@H](F)C4)nc3c(F)c(-c4c5ccccc5cc5[nH]ncc45)ncc23)C1` [Example 154, (3R)-1-(7-(1H-benzo[f]indazol-4-yl)-8-fluoro-2-(((2R,7aS)-2-fluorohexahydro-1H-pyrrolizin-7a-yl)methoxy)pyrido[4,3-d]pyrimidin-4-yl)-3-methylpiperidin-3-ol], the IC50 worked out at 0.043 µM on KRas G12C; 0.043 µM at KRas G12S; 0.054 µM at KRas WT; 0.028 µM at KRas G12V; 34 nM on KRas G13D; 0.033 µM against KRas G12D. Further, the IC50 on KRas G12A is 0.042 µM; in experiment [1], 1460 nM; in [2] it was 8450 nM; in experiment [3] it was not below 10000 nM; in [4] it was 840 nM; in [5], not below 10000 nM. In addition, the values for the IC50 at KRas Q61H and against KRas G12R were 53 nM and 0.066 µM, respectively.
With `CCc1c(F)ccc2cc(O)cc(-c3ncc4c(N5CCCC(CS(N)(=O)=O)C5)nc(OC[C@@]56CCCN5C[C@H](F)C6)nc4c3F)c12` (some centres unmarked) [Example 170], the IC50 is not above 0.002 µM against KRas G12V; not above 0.002 µM on KRas G12D; 2350 nM in experiment [1]; not below 10000 nM in [2]; not below 10000 nM in experiment [3]; 470 nM in experiment [4]. Further, the IC50 in experiment [5] was 3400 nM; against KRas G12R it was not above 0.002 µM.
Turning to `CCc1c(F)ccc2cc(O)cc(-c3ncc4c(NC56CC(O)(C5)C6)nc(OC[C@@]56CCCN5C[C@H](F)C6)nc4c3F)c12` [Example 166], the IC50 at KRas G12V is not above 0.002 µM; against KRas G12D, 0.007 µM; in [1] it was not below 10000 nM; in [2], not below 10000 nM; in [3], not below 10000 nM; in [4], 328 nM. Further, the IC50 was not below 10000 nM in [5] and not above 0.002 µM on KRas G12R.
Consider `CCc1c(F)ccc2cc(O)cc(-c3ncc4c(NCC5CS(=O)(=O)C5)nc(OC[C@@]56CCCN5C[C@H](F)C6)nc4c3F)c12` [Example 177], for which the IC50 against KRas G12V was not above 0.002 µM; against KRas G12D, 0.003 µM; in experiment [1] it was 1700 nM; in experiment [2] it was 764 nM; in experiment [3] it was not below 10000 nM; in experiment [4] it was 54 nM. Moreover, the IC50 is not below 10000 nM in [5] and not above 0.002 µM at KRas G12R.
As for `CCc1c(F)ccc2cc(O)cc(-c3ncc4c(Nc5ccc6cnn(C)c6c5)nc(OC[C@@]56CCCN5C[C@H](F)C6)nc4c3F)c12` [Example 174, 5-ethyl-6-fluoro-4-(8-fluoro-2-(((2R,7aS)-2-fluorohexahydro-1H-pyrrolizin-7a-yl)methoxy)-4-((1-methyl-1H-indazol-6-yl)amino)pyrido[4,3-d]pyrimidin-7-yl)naphthalen-2-ol], the IC50 against KRas G12V was 0.004 µM; on KRas G12D, 0.089 µM; in experiment [1], not below 10000 nM; in experiment [2] it was 4950 nM; in experiment [3], not below 10000 nM; in [4], 1290 nM. In addition, the IC50 in experiment [5] is not below 10000 nM; on KRas G12R it was 0.013 µM.
Regarding `CCc1c(F)ccc2cc(O)cc(-c3ncc4c(NC5CS(=O)(=O)C5)nc(OC[C@@]56CCCN5C[C@H](F)C6)nc4c3F)c12` [Example 168], the IC50 against KRas G12V is not above 0.002 µM; on KRas G12D it was 0.005 µM; in experiment [1], 821 nM; in experiment [2], not below 10000 nM; in experiment [3] it was not below 10000 nM; in experiment [4] it was 156 nM. Also, the IC50 in experiment [5] is 1800 nM; against KRas G12R it was not above 0.002 µM.
Regarding `CCc1c(F)ccc2cc(O)cc(-c3ncc4c(N5CCCC(O)C5)nc(OC[C@@]56CCCN5C[C@H](F)C6)nc4c3F)c12` (stereo partly drawn) [Example 299, 1-(7-(8-ethyl-7-fluoro-3-hydroxynaphthalen-1-yl)-8-fluoro-2-(((2R,7aS)-2-fluorohexahydro-1H-pyrrolizin-7a-yl)methoxy)pyrido[4,3-d]pyrimidin-4-yl)piperidin-3-ol], the IC50 was 333 nM in experiment [1]; 108 nM in [2]; not below 10000 nM in experiment [3]; 29 nM in [4]; 126 nM in experiment [5].
